This note sets out measurements from patent US12653809B2, “Urea, amide, and substituted heteroaryl compounds for CBL-B inhibition” (Nurix Therapeutics, Inc., priority 2019, dated 2026).

The target of the assay is T1, Cbl-b (truncated variant, UniProt number Q13191) (Homo sapiens, UniProt Q13191).
T1 construct: made in house
As to the kind of experiment: Cbl-b activity assay (TR-FRET, interaction of Cbl-b with UbcH5B-Ub). Format: biochemical. The source says:
As described in Biological Example 1A, a Cbl-b activity assay (Cbl-b inhibition assay) used to measure the IC50 values for Cbl-b inhibition uses a mixture comprising candidate compound, Cbl-b (truncated, with an Avitag, and biotinylated), a fluorescently-labeled E2 enzyme UbcH5B labelled with ubiquitin conjugated to BODIPY-fluorescein (UbcH5B-Ub), streptavidin-terbium, and assay buffer. In one embodiment, the Cbl-b activity assay (Cbl-b inhibition assay) used to measure IC50 for inhibition of Cbl-b uses the conditions described in Biological Example 1A with 12 nM Cbl-b. […] In another embodiment, the Cbl-b activity assay (Cbl-b inhibition assay) used to measure IC50 for inhibition of Cbl-b uses the conditions described in Biological Example 1B, with candidate compound, 0.125 nM Cbl-b (truncated, with an avitag, and biotinylated), fluorescently labelled inhibitor probe, and assay buffer. Displacement of the inhibitor probe indicates Cbl-b activity.
Candidate compounds isolated from screening assays were evaluated for their ability to bind and inhibit Cbl-b, an E3 ubiquitin-protein ligase.
The ability of candidate compounds to inhibit Cbl-b activity was measured by monitoring the interaction of Cbl-b with UbcH5B-Ub in the presence of the candidate compound. A truncated variant of Cbl-b (UniProt number Q13191; SEQ ID NO:1) containing an Avitag at its N-terminus was co-expressed with BirA biotin ligase and purified using a standard protocol (see Dou et al., Nature Structural and Molecular Biology 8: 982-987, 2013; Avidity LLC).
Fluorescently labeled UbcH5B-Ub was prepared by conjugating ubiquitin (Ub), labeled at its N-terminus with Bodipy-Fluorescein, to UbcH5B, an E2 enzyme, harboring a cysteine to lysine mutation at position 85. This mutation is similar to a mutation that was previously reported (see Dou et al., Nature Structural and Molecular Biology 8: 982-987, 2013). Cbl-b activity assays were performed in a 384-well plate at room temperature in a 10 μL reaction volume by pre-incubating 12 nM Cbl-b (final concentration) in an assay buffer containing 50 mM HEPES pH 7.0, 100 mM NaCl, 0.01% Triton X-100, 0.01% BSA, and 1 mM DTT in the presence of a candidate compound in 1% DMSO (final concentration, High Conditions) for one hour. After incubation in the presence of the candidate compound, the plate was incubated for an additional 1.5 hours in the presence of 60 nM Src kinase with 1 mM ATP and 5 mM MgCl2 (final concentrations). Alternatively, compounds were tested as described above with assay buffer containing 50 mM NaCl instead of 100 mM NaCl and 30 nM Src kinase instead of 60 nM Src kinase (Low Conditions). Src kinase was prepared as previously described (see Kobashigawa et al., Proc Natl Acad Sci USA, 108: 20579-20584, 2011). […] The plate was incubated for one hour. Following the one hour incubation, the plates were read for TR-FRET signal at 520/620 nm using Envision plate reader (Perkin Elmer). The presence of a FRET signal that indicated Cbl-b was not inhibited by the compound candidate. The absence of a FRET signal indicated Cbl-b was inhibited by the compound candidate and was therefore a Cbl-b inhibitor.
The resulting data for the Cbl-b activity assays were analyzed using standard methods to report the IC50 values of the tested compounds (Tables 3-4). The resulting data for the Cbl-b binding assay was solvent corrected and double-referenced prior to analysis. All data were globally fit to a steady-state affinity and kinetic binding model where applicable. Compounds were ranked into bins A through D as follows for IC50: A indicates <0.1 μM, B indicates 0.1 μM≤IC50<1 μM, C indicates 1 μM≤IC50<5 μM, and D indicates 5 μM≤IC50.
For orientation: In TR-FRET formats the signal depends on donor and acceptor labels being close together.

Setting [1] is: high conditions: 100 mM NaCl, 60 nM Src kinase, 12 nM Cbl-b, read-out: Cbl-b activity IC50.
[2] abbreviates: Biological Example 1A, low or high conditions not stated, read-out: IC50 values in the Cbl-b inhibition assay of Biological Example 1A.
Where [3] appears, read: low conditions: 50 mM NaCl, 30 nM Src kinase, 12 nM Cbl-b, read-out: Cbl-b activity IC50.

Where two headings read alike, the source gives them in different places. Bounds are passed on as bounds.

T1 sequence (Q13191 36-427): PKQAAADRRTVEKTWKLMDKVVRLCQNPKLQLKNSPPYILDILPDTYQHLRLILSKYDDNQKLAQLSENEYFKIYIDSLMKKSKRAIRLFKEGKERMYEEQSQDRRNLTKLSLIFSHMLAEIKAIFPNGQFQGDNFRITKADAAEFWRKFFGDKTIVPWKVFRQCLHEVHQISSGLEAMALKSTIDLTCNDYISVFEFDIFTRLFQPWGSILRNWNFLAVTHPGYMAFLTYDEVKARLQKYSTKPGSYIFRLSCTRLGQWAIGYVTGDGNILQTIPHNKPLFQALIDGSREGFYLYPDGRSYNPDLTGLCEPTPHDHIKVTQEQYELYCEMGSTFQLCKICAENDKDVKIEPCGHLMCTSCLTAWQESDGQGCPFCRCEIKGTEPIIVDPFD

`Cn1cnnc1C(F)(F)[C@](C)(F)c1cccc(NC(=O)N2CCOc3cccnc32)c1` [Example 24, (R)—N-(3-(1,1,2-trifluoro-1-(4-methyl-4H-1,2,4-triazol-3-yl)propan-2-yl)phenyl)-2,3-dihydro-4H-pyrido[3,2-b][1,4]oxazine-4-carboxamide]: under setting [1], the IC50 was in the range of 0.1 to 1 µM.

As to `Cn1cnnc1[C@@H]1C[C@@H]1c1cccc(NC(=O)N2CCOc3cccnc32)c1` [Example 25, N-(3-((1S,2R)-2-(4-methyl-4H-1,2,4-triazol-3-yl)cyclopropyl)phenyl)-2,3-dihydro-4H-pyrido[3,2-b][1,4]oxazine-4-carboxamide], the IC50 under setting [1] fell in the range of 0.1 to 1 µM.

For the compound `Cn1cnnc1CC1(c2cccc(NC(=O)N3CC4(CCNC4)Oc4cccnc43)c2)COC1` (centres unmarked) [Example 26, N-(3-(3-((4-methyl-4H-1,2,4-triazol-3-yl)methyl)oxetan-3-yl)phenyl)spiro[pyrido[3,2-b][1,4]oxazine-2,3′-pyrrolidine]-4(3H)-carboxamide], the 50% inhibitory concentration (IC50) under setting [1] is below 0.1 µM.

For the compound `Cn1cnnc1CC1(c2cccc(NC(=O)N3CC4(CNC4)Oc4cccnc43)c2)COC1` [Example 27, N-(3-(3-((4-methyl-4H-1,2,4-triazol-3-yl)methyl)oxetan-3-yl)phenyl)spiro[azetidine-3,2′-pyrido[3,2-b][1,4]oxazine]-4′(3′H)-carboxamide], the IC50 under setting [1] is below 0.1 µM.

`Cn1cnnc1C(F)(F)[C@](C)(F)c1cccc(NC(=O)N2CC3(CNC3)Oc3cccnc32)c1` [Example 28, (R)—N-(3-(1,1,2-trifluoro-1-(4-methyl-4H-1,2,4-triazol-3-yl)propan-2-yl)phenyl)spiro[azetidine-3,2′-pyrido[3,2-b][1,4]oxazine]-4′(3′H)-carboxamide]: under setting [1], the IC50 was below 0.1 µM.

Take `CN1CC2(C1)CN(C(=O)Nc1cccc(C3(Cc4nncn4C)COC3)c1)c1ncccc1O2` [Example 29, 1-methyl-N-(3-(3-((4-methyl-4H-1,2,4-triazol-3-yl)methyl)oxetan-3-yl)phenyl)spiro[azetidine-3,2′-pyrido[3,2-b][1,4]oxazine]-4′(3′H)-carboxamide]: the IC50 under setting [1] is below 0.1 µM.

Turning to `Cn1cnnc1CC1(c2cccc(NC(=O)N3CC4(CCNCC4)c4cccnc43)c2)COC1` [Example 30, N-(3-(3-((4-methyl-4H-1,2,4-triazol-3-yl)methyl)oxetan-3-yl)phenyl)spiro[piperidine-4,3′-pyrrolo[2,3-b]pyridine]-1′(2′H)-carboxamide], under setting [1], the IC50 is below 0.1 µM.

On to `CN1CCC2(CC1)CN(C(=O)Nc1cccc(C3(Cc4nncn4C)COC3)c1)c1ncccc12` [Example 31, 1-methyl-N-(3-(3-((4-methyl-4H-1,2,4-triazol-3-yl)methyl)oxetan-3-yl)phenyl)spiro[piperidine-4,3′-pyrrolo[2,3-b]pyridine]-1′(2′H)-carboxamide], for which the IC50 runs as follows: under setting [2], 0.1 to 1 µM; under setting [1], 0.1 to 1 µM.

Turning to `Cn1cnnc1CC1(c2cccc(N3CC4C(C(F)(F)F)CCN4C3=O)c2)COC1` (centres unmarked) [Example 32, 2-(3-(3-((4-methyl-4H-1,2,4-triazol-3-yl)methyl)oxetan-3-yl)phenyl)-7-(trifluoromethyl)hexahydro-3H-pyrrolo[1,2-c]imidazol-3-one], the IC50 under setting [2] was in the range of 1 to 5 µM and the 50% inhibitory concentration (IC50) under setting [1] lay in the range of 1 to 5 µM.

For `CC(Sc1nncn1C)c1cccc(C(=O)Nc2ccccc2)c1` (centres unmarked) [Example 33, 3-(1-((4-methyl-4H-1,2,4-triazol-3-yl)thio)ethyl)-N-phenylbenzamide], the IC50 under setting [3] is at least 5 µM.

On to `CC(Sc1nncn1C)c1cccc(C(=O)Nc2ccccn2)c1` (centres unmarked) [Example 34, 3-(1-((4-methyl-4H-1,2,4-triazol-3-yl)thio)ethyl)-N-(pyridin-2-yl)benzamide], for which the IC50 under setting [3] is at least 5 µM.

Turning to `C[C@H](Sc1nncn1C)c1cccc(C(=O)Nc2ccc3ccccc3n2)c1` [Example 35, (S)-3-(1-((4-methyl-4H-1,2,4-triazol-3-yl)thio)ethyl)-N-(quinolin-2-yl)benzamide], the IC50 under setting [1] is at least 5 µM.

With `C[C@H](Sc1nncn1C)c1cccc(C(=O)Nc2cc(C(F)(F)F)ccn2)c1` [Example 36, (S)-3-(1-((4-methyl-4H-1,2,4-triazol-3-yl)thio)ethyl)-N-(4-(trifluoromethyl)pyridin-2-yl)benzamide], the IC50 by setting is: under setting [2], 1 to 5 µM; under setting [1], 1 to 5 µM.

As for `Cn1cnnc1CC1(c2cccc(C(=O)Nc3cccc(C4CC4)n3)c2)COC1` [Example 37, N-(6-cyclopropylpyridin-2-yl)-3-(3-((4-methyl-4H-1,2,4-triazol-3-yl)methyl)oxetan-3-yl)benzamide], the IC50 runs as follows: under setting [2], at least 5 µM; under setting [1], at least 5 µM.

As to `Cc1cccc(NC(=O)c2cccc(C3(Cc4nncn4C)COC3)c2)n1` [Example 38, 3-(3-((4-methyl-4H-1,2,4-triazol-3-yl)methyl)oxetan-3-yl)-N-(6-methylpyridin-2-yl)benzamide], the IC50 reads like this: under setting [2], at least 5 µM; under setting [1], at least 5 µM.

As for `Cc1cnnc(NC(=O)Nc2cccc([C@H](C)Sc3nncn3C)c2)c1` [Example 39, (S)-1-(3-(1-((4-methyl-4H-1,2,4-triazol-3-yl)thio)ethyl)phenyl)-3-(5-methylpyridazin-3-yl)urea], the IC50 by setting is: under setting [2], 1 to 5 µM; under setting [1], 1 to 5 µM.

Regarding `C[C@H](Sc1nncn1C)c1cccc(NC(=O)N2CC3CCCC3C2)c1` (stereo partly drawn) [Example 40, N-(3-((S)-1-((4-methyl-4H-1,2,4-triazol-3-yl)thio)ethyl)phenyl)hexahydrocyclopenta[c]pyrrole-2(1H)-carboxamide], the IC50 runs as follows: under setting [2], 1 to 5 µM; under setting [1], 1 to 5 µM.

Take `CC1CCN(C(=O)Nc2cccc([C@H](C)Sc3nncn3C)c2)C1` (stereo partly drawn) [Example 41, 3-methyl-N-(3-((S)-1-((4-methyl-4H-1,2,4-triazol-3-yl)thio)ethyl)phenyl)pyrrolidine-1-carboxamide]: the IC50 under setting [1] was at least 5 µM.

For `CC1CN(C(=O)Nc2cccc([C@H](C)Sc3nncn3C)c2)CC(C)O1` (stereo partly drawn) [Example 42, 2,6-dimethyl-N-(3-((S)-1-((4-methyl-4H-1,2,4-triazol-3-yl)thio)ethyl)phenyl)morpholine-4-carboxamide], the IC50 under setting [1] is at least 5 µM.

On to `C[C@H](Sc1nncn1C)c1cccc(NC(=O)N2CCOC3(CCC3)C2)c1` [Example 43, (S)—N-(3-(1-((4-methyl-4H-1,2,4-triazol-3-yl)thio)ethyl)phenyl)-5-oxa-8-azaspiro[3.5]nonane-8-carboxamide], for which the IC50 under setting [1] was at least 5 µM.

Regarding `C[C@H](Sc1nncn1C)c1cccc(NC(=O)N2CCn3nccc3C2)c1` [Example 44, (S)—N-(3-(1-((4-methyl-4H-1,2,4-triazol-3-yl)thio)ethyl)phenyl)-6,7-dihydropyrazolo[1,5-a]pyrazine-5(4H)-carboxamide], the half-maximal inhibitory concentration (IC50) under setting [1] is at least 5 µM.

Take `C[C@H](Sc1nncn1C)c1cccc(NC(=O)N2Cc3cccc(O)c3C2)c1` [Example 45, (S)-4-hydroxy-N-(3-(1-((4-methyl-4H-1,2,4-triazol-3-yl)thio)ethyl)phenyl)isoindoline-2-carboxamide]: the 50% inhibitory concentration (IC50) lay within 0.1 to 1 µM under setting [2] and 0.1 to 1 µM under setting [1].

Turning to `C[C@H](Sc1nncn1C)c1cccc(NC(=O)N2Cc3cnn(C)c3C2)c1` [Example 46, (S)-1-methyl-N-(3-(1-((4-methyl-4H-1,2,4-triazol-3-yl)thio)ethyl)phenyl)-4,6-dihydropyrrolo[3,4-c]pyrazole-5(1H)-carboxamide], the IC50 lay within 1 to 5 µM under setting [2] and 1 to 5 µM under setting [1].

The term IC50 denotes the concentration needed to halve the response being measured.
